Results reported in PubChem BioAssay AID1963838 (Molecular Pharmacology Branch, DTP, NCI, 2024).

Test system: 855422-203-R-J1-PDC complex spheroid viability
Experiment: Anticancer human tumor 855422-203-R-J1-PDC patient-derived bladder carcinoma cell line growth inhibition [POLQ]
Conditions: for IC50: curve of first compound; for viability, T/C: stronger effect = lower value
Outline: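 Patient-derived tumour cells were co-cultured with HUVEC and mesenchymal stem cells as multicellular spheroids at 37 °C. They were treated with POLQ inhibitors (novobiocin, ART-558, RP6685) alone or combined with other agents. Top concentrations were at or near clinical Cmax (otherwise 10 microM; SN-38 at 1 microM), decreasing in half-log steps.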

[1] = second compound 0.0316 µM, first compound 0.0316 µM
[2] = second compound 0.0316 µM, first compound 0.1 µM
[3] = second compound 0.0316 µM, first compound 0.316 µM
[4] = second compound 0.0316 µM, first compound 1 µM
[5] = second compound 0.0316 µM, first compound 3.16 µM
[6] = second compound 0.0316 µM, first compound 10 µM
[7] = second compound 0.1 µM, first compound 0.0316 µM
[8] = second compound 0.1 µM, first compound 0.1 µM
[9] = second compound 0.1 µM, first compound 0.316 µM
[10] = second compound 0.1 µM, first compound 1 µM
[11] = second compound 0.1 µM, first compound 3.16 µM
[12] = second compound 0.1 µM, first compound 10 µM
[13] = second compound 0.316 µM, first compound 0.0316 µM
[14] = second compound 0.316 µM, first compound 0.1 µM
[15] = second compound 0.316 µM, first compound 0.316 µM
[16] = second compound 0.316 µM, first compound 1 µM
[17] = second compound 0.316 µM, first compound 3.16 µM
[18] = second compound 0.316 µM, first compound 10 µM
[19] = second compound 1 µM, first compound 0.0316 µM
[20] = second compound 1 µM, first compound 0.1 µM
[21] = second compound 1 µM, first compound 0.316 µM
[22] = second compound 1 µM, first compound 1 µM
[23] = second compound 1 µM, first compound 3.16 µM
[24] = second compound 1 µM, first compound 10 µM
[25] = second compound 3.16 µM, first compound 0.0316 µM
[26] = second compound 3.16 µM, first compound 0.1 µM
[27] = second compound 3.16 µM, first compound 0.316 µM
[28] = second compound 3.16 µM, first compound 1 µM
[29] = second compound 3.16 µM, first compound 3.16 µM
[30] = second compound 3.16 µM, first compound 10 µM
[31] = second compound 10 µM, first compound 0.0316 µM
[32] = second compound 10 µM, first compound 0.1 µM
[33] = second compound 10 µM, first compound 0.316 µM
[34] = second compound 10 µM, first compound 1 µM
[35] = second compound 10 µM, first compound 3.16 µM
[36] = second compound 10 µM, first compound 10 µM
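Also: spheroids exposed to compounds for seven days before readout.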

## CCCS(=O)(=O)Nc1ccc(F)c(C(=O)c2c[nH]c3ncc(-c4ccc(Cl)cc4)cc23)c1F + COC1C(OC(N)=O)C(O)C(Oc2ccc3c(O)c(NC(=O)c4ccc(O)c(CC=C(C)C)c4)c(=O)oc3c2C)OC1(C)C
Second compound 0.0316 µM
  IC50: 5.93 µM
Second compound 0.1 µM
  IC50: 5.85 µM
Second compound 0.316 µM
  IC50: 5.94 µM
Second compound 1 µM
  IC50: 5.47 µM
Second compound 3.16 µM
  IC50: 5.74 µM
Second compound 10 µM
  IC50: 5.88 µM
[1]
  viability, T/C: 112%
[2]
  viability, T/C: 94.6%
[3]
  viability, T/C: 113%
[4]
  viability, T/C: 116%
[5]
  viability, T/C: 113%
[6]
  viability, T/C: 0.27%
[7]
  viability, T/C: 117%
[8]
  viability, T/C: 108%
[9]
  viability, T/C: 115%
[10]
  viability, T/C: 107%
[11]
  viability, T/C: 106%
[12]
  viability, T/C: 1.29%
[13]
  viability, T/C: 118%
[14]
  viability, T/C: 96.7%
[15]
  viability, T/C: 114%
[16]
  viability, T/C: 107%
[17]
  viability, T/C: 109%
[18]
  viability, T/C: 1.4%
[19]
  viability, T/C: 119%
[20]
  viability, T/C: 117%
[21]
  viability, T/C: 108%
[22]
  viability, T/C: 94.2%
[23]
  viability, T/C: 98.7%
[24]
  viability, T/C: 0.24%
[25]
  viability, T/C: 102%
[26]
  viability, T/C: 111%
[27]
  viability, T/C: 110%
[28]
  viability, T/C: 118%
[29]
  viability, T/C: 103%
[30]
  viability, T/C: 0.36%
[31]
  viability, T/C: 108%
[32]
  viability, T/C: 108%
[33]
  viability, T/C: 96.2%
[34]
  viability, T/C: 116%
[35]
  viability, T/C: 110%
[36]
  viability, T/C: 0.68%

## CNCc1ccc(-c2[nH]c3cc(F)cc4c3c2CCNC4=O)cc1 + COC1C(OC(N)=O)C(O)C(Oc2ccc3c(O)c(NC(=O)c4ccc(O)c(CC=C(C)C)c4)c(=O)oc3c2C)OC1(C)C
Second compound 0.0316 µM
  IC50: > 10 µM
Second compound 0.1 µM
  IC50: > 10 µM
Second compound 0.316 µM
  IC50: > 10 µM
Second compound 1 µM
  IC50: > 10 µM
Second compound 3.16 µM
  IC50: > 10 µM
Second compound 10 µM
  IC50: > 10 µM
[1]
  viability, T/C: 93.5%
[2]
  viability, T/C: 104%
[3]
  viability, T/C: 125%
[4]
  viability, T/C: 106%
[5]
  viability, T/C: 107%
[6]
  viability, T/C: 105%
[7]
  viability, T/C: 110%
[8]
  viability, T/C: 108%
[9]
  viability, T/C: 98%
[10]
  viability, T/C: 109%
[11]
  viability, T/C: 100%
[12]
  viability, T/C: 110%
[13]
  viability, T/C: 91.3%
[14]
  viability, T/C: 97.8%
[15]
  viability, T/C: 99.5%
[16]
  viability, T/C: 104%
[17]
  viability, T/C: 105%
[18]
  viability, T/C: 118%
[19]
  viability, T/C: 104%
[20]
  viability, T/C: 107%
[21]
  viability, T/C: 110%
[22]
  viability, T/C: 107%
[23]
  viability, T/C: 117%
[24]
  viability, T/C: 104%
[25]
  viability, T/C: 106%
[26]
  viability, T/C: 92%
[27]
  viability, T/C: 112%
[28]
  viability, T/C: 109%
[29]
  viability, T/C: 104%
[30]
  viability, T/C: 109%
[31]
  viability, T/C: 110%
[32]
  viability, T/C: 101%
[33]
  viability, T/C: 111%
[34]
  viability, T/C: 106%
[35]
  viability, T/C: 93.2%
[36]
  viability, T/C: 97.4%

## COc1ccc([C@@H](O)c2cc(-c3ncnc4cc(N5CCOCC5)ccc34)c(F)cc2Cl)nn1 + COC1C(OC(N)=O)C(O)C(Oc2ccc3c(O)c(NC(=O)c4ccc(O)c(CC=C(C)C)c4)c(=O)oc3c2C)OC1(C)C
Second compound 0.0316 µM
  IC50: 6.47 µM
Second compound 0.1 µM
  IC50: 6.5 µM
Second compound 0.316 µM
  IC50: 6.58 µM
Second compound 1 µM
  IC50: 6.17 µM
Second compound 3.16 µM
  IC50: 6.5 µM
Second compound 10 µM
  IC50: 6.48 µM
[1]
  viability, T/C: 107%
[2]
  viability, T/C: 102%
[3]
  viability, T/C: 95.7%
[4]
  viability, T/C: 81.1%
[5]
  viability, T/C: 71.9%
[6]
  viability, T/C: 37.7%
[7]
  viability, T/C: 90.4%
[8]
  viability, T/C: 113%
[9]
  viability, T/C: 101%
[10]
  viability, T/C: 89.8%
[11]
  viability, T/C: 68.6%
[12]
  viability, T/C: 39.1%
[13]
  viability, T/C: 119%
[14]
  viability, T/C: 121%
[15]
  viability, T/C: 101%
[16]
  viability, T/C: 86.9%
[17]
  viability, T/C: 64.5%
[18]
  viability, T/C: 41.9%
[19]
  viability, T/C: 110%
[20]
  viability, T/C: 108%
[21]
  viability, T/C: 93.8%
[22]
  viability, T/C: 98.7%
[23]
  viability, T/C: 68.7%
[24]
  viability, T/C: 35.3%
[25]
  viability, T/C: 109%
[26]
  viability, T/C: 107%
[27]
  viability, T/C: 106%
[28]
  viability, T/C: 84.8%
[29]
  viability, T/C: 73.2%
[30]
  viability, T/C: 37.2%
[31]
  viability, T/C: 121%
[32]
  viability, T/C: 110%
[33]
  viability, T/C: 110%
[34]
  viability, T/C: 91.2%
[35]
  viability, T/C: 71.7%
[36]
  viability, T/C: 36.9%

## O=C(c1cc(Cc2n[nH]c(=O)c3ccccc23)ccc1F)N1CCN(C(=O)C2CC2)CC1 + COC1C(OC(N)=O)C(O)C(Oc2ccc3c(O)c(NC(=O)c4ccc(O)c(CC=C(C)C)c4)c(=O)oc3c2C)OC1(C)C
Second compound 0.0316 µM
  IC50: > 10 µM
Second compound 0.1 µM
  IC50: > 10 µM
Second compound 0.316 µM
  IC50: > 10 µM
Second compound 1 µM
  IC50: > 10 µM
Second compound 3.16 µM
  IC50: > 10 µM
Second compound 10 µM
  IC50: > 10 µM
[1]
  viability, T/C: 107%
[2]
  viability, T/C: 107%
[3]
  viability, T/C: 122%
[4]
  viability, T/C: 90.8%
[5]
  viability, T/C: 95.6%
[6]
  viability, T/C: 78.8%
[7]
  viability, T/C: 93.3%
[8]
  viability, T/C: 111%
[9]
  viability, T/C: 109%
[10]
  viability, T/C: 104%
[11]
  viability, T/C: 93.8%
[12]
  viability, T/C: 83.7%
[13]
  viability, T/C: 95.9%
[14]
  viability, T/C: 105%
[15]
  viability, T/C: 102%
[16]
  viability, T/C: 114%
[17]
  viability, T/C: 101%
[18]
  viability, T/C: 67.2%
[19]
  viability, T/C: 108%
[20]
  viability, T/C: 101%
[21]
  viability, T/C: 95.5%
[22]
  viability, T/C: 118%
[23]
  viability, T/C: 95.8%
[24]
  viability, T/C: 66.9%
[25]
  viability, T/C: 111%
[26]
  viability, T/C: 90.8%
[27]
  viability, T/C: 106%
[28]
  viability, T/C: 105%
[29]
  viability, T/C: 91.2%
[30]
  viability, T/C: 68.1%
[31]
  viability, T/C: 104%
[32]
  viability, T/C: 111%
[33]
  viability, T/C: 106%
[34]
  viability, T/C: 96.7%
[35]
  viability, T/C: 103%
[36]
  viability, T/C: 60.2%
